Measured values as given in patent US9662461B2, “Dry powder drug delivery system and methods” (MannKind Corporation, priority 2008, dated 2017).

What was measured:
[1] = Pharmacokinetics of FDKP inhaled as FDKP inhalation powder (Example 8); format: in vivo, healthy volunteers; conditions: for AVG mean AUC fdkp per emitted fdkp mass: n=10
Method: The MEDTONE® inhaler system was used for comparison.
To generate a “hard” inhalation, the subject provided a nominal inhalation time of about 6.5 seconds and a peak pressure of 7 kPa. Conversely, to generate an “easy” inhalation, the subject provided a nominal inhalation time of about 6.5 seconds and a peak pressure of 5 kPa. Coupled with the inhalation monitoring apparatus, gravimetric assessment of the powder mass discharged from the cartridge was performed. This enabled a linkage between inhalation maneuver during dosing, cartridge discharge mass and pharmacokinetic profile determinations for each subject.
The study was an open-label, crossover, 2-part study in healthy volunteers.
Part 2 was carried out as a 2-part, 2-way crossover study for evaluating the effect of flow rate (15 versus 30 LPM) and inhalation time (3 versus 6 seconds). For each parameter tested (i.e., flow rate, and inhalation time), ten subjects were crossed over for each parameter with 20 subjects total for all of the parameters. Pharmacokinetics of FDPK was assessed with each treatment from blood samples taken from the subjects.

[2] = VMGD and container emptying by laser diffraction, DPI 2 vs predicate inhaler (Example 6); format: physicochemical; conditions: 56% trans, SSA 55, 4 kPa
From the text: Laser diffraction of dry powder formulations emitted from dry powder inhalers is a common methodology employed to characterize the level of de-agglomeration subjected to a powder. The methodology indicates a measure of geometric size rather than aerodynamic size as occurring in industry standard impaction methodologies. Typically, the geometric size of the emitted powder includes a volumetric distribution characterized by the median particle size, VMGD. Importantly, geometric sizes of the emitted particles are discerned with heightened resolution as compared to the aerodynamic sizes provided by impaction methods. Smaller sizes are preferred and result in greater likelihood of individual particles being delivered to the pulmonary tract. Thus, differences in inhaler de-agglomeration and ultimate performance can be easier to resolve with diffraction. In these experiments, an inhaler as specified in Example 3 and a predicate inhaler are tested with laser diffraction at pressures analogous to actual patient inspiratory capacities to determine the effectiveness of the inhalation system to de-agglomerate powder formulations. […] Reported in Table 5 are a VMGD and an efficiency of the container emptying during the testing.

[3] = In vitro powder performance DPI 2 vs MEDTONE delivery system (Example 7); format: physicochemical; conditions: 4 kPa
From the text: In vitro powder performance for these systems was compared for various parameter of inhaler performance. For DPI 2 a single discharge per cartridge was used as compared to two discharges per cartridge in the MEDTONE® system.
Particle sizing by laser diffraction and quantification of emitted mass as described above were used in these experiments. A laser diffraction instrument (Sympatec HELOS) was adapted with a novel pressurized inhaler chamber to facilitate analysis of powder plumes. MTDS cartridges were discharged twice per determination versus once with DPI 2.

[4] = DPI 2, 10 mg fill, single discharge, n=15
[5] = MEDTONE (MTDS), 10 mg fill FDKP, two discharges, n=30

O=C(O)/C=C/C(=O)NCCCCC1NC(=O)C(CCCCNC(=O)/C=C/C(=O)O)NC1=O (stereo not shown) [FDKP, 3,6-bis(N-fumaryl-4-aminobutyl)-2,5-diketopiperazine]
delivery of FDKP into the systemic circulation, DPI 1 better than MEDTONE ([1]; DPI 1 vs MEDTONE inhaler): about 30% | increase in FDKP plasma AUC, DPI 1 over MEDTONE ([1]; FDKP 10 mg): ~2 fold | AVG mean AUC fdkp per emitted fdkp mass ([1]; Part 1, DPI 1, cartridge 10 mg fdkp): 3495 ng * min/mL * mg fdkp | AVG mean AUC fdkp per emitted fdkp mass ([1]; Part 1, MT (MEDTONE), two inhalations, cartridge 10 mg fdkp): 1934 ng * min/mL * mg fdkp | AVG mean AUC fdkp per emitted fdkp mass ([1]; Part 2, DPI 1, 10 mg, long inhalation time): 3289 ng * min/mL * mg fdkp | AVG mean AUC fdkp per emitted fdkp mass ([1]; Part 2, DPI 1, 10 mg, short inhalation time): 3310 ng * min/mL * mg fdkp | AVG mean AUC fdkp per emitted fdkp mass ([1]; Part 3, DPI 1, 10 mg, easy inhalation effort): 3925 ng * min/mL * mg fdkp | AVG mean AUC fdkp per emitted fdkp mass ([1]; Part 3, DPI 1, 10 mg, hard inhalation effort): 3867 ng * min/mL * mg fdkp | VMGD [2]: 6.800 micron | Ave. Geometric SD [3, 4]: 3.79 μm | Ave. VMGD [3, 4]: 6.84 μm | Ave. Geometric SD [3, 5]: 2.94 μm | Ave. VMGD [3, 5]: 21.21 μm
